From patent US12377084B2, “ERAP1 modulators” (GREY WOLF THERAPEUTICS LIMITED, priority 2019, dated 2025)
Counter-ions that a name gives are not always drawn.

Molecular target: T1, Purified ERAP1(37-941)-10 His (ERAP1) (Homo sapiens, UniProt Q9NZ08)
T1 construct: Purified ERAP1(37-941)-10 His (ERAP1); 10xHis (C)
Assay: ERAP1 mediated hydrolysis of an amide substrate in a biochemical system (10 mer inhibition assay)
Conditions: 10-mer substrate, incubated at 23° C. for 1 h; excitation 279 nm, emission 355 nm; read-out: IC50 vs Decapeptide WRVYEKC(Dnp)ALK-acid (where Dnp is Dinitrophenyl maleimide) (10-mer)
From the text: This peptide has minimal fluorescence as the N-terminal tryptophan residue's fluorescence is quenched by the dinitrophenol (DNP) residue within the peptide. However, as ERAP1 hydrolyses the N-terminal amide bond and tryptophan is released this internal quenching is lost and the reaction is monitored by the increase in tryptophan fluorescence over the course of the assay. For the purposes of this application this assay is referred to as the “10 mer inhibition assay” and compound potencies are calculated and expressed as IC50 as would be familiar to a person skilled in the art.
Biological Assay 1: ERAP1 Mediated Hydrolysis of an Amide Substrate Measured in a Biochemical System
1× Assay buffer (AB): 25 mM Bis-tris propane, 0.05% w/v
Hydroxypropylmethylcellulose pH 7.75 made with Optima grade water
Decapeptide WRVYEKC(Dnp)ALK-acid (where Dnp is Dinitrophenyl maleimide) (10-mer)
12.5 μL ERAP1 enzyme in 1×AB was combined with 250 nL test compound in DMSO. 12.5 μL of either 240 μM L-AMC in 1×AB or 100 μM 10-mer in 1×AB was added to the reaction and incubated at 23° C. for 1 h. For detection, plates were read at excitation 365 nm and emission 442 nm (L-AMC) or excitation 279 nm and emission 355 nm (10-mer). Compound IC50 was determined using a 4-parameter equation.

T1 sequence (Q9NZ08 37-941): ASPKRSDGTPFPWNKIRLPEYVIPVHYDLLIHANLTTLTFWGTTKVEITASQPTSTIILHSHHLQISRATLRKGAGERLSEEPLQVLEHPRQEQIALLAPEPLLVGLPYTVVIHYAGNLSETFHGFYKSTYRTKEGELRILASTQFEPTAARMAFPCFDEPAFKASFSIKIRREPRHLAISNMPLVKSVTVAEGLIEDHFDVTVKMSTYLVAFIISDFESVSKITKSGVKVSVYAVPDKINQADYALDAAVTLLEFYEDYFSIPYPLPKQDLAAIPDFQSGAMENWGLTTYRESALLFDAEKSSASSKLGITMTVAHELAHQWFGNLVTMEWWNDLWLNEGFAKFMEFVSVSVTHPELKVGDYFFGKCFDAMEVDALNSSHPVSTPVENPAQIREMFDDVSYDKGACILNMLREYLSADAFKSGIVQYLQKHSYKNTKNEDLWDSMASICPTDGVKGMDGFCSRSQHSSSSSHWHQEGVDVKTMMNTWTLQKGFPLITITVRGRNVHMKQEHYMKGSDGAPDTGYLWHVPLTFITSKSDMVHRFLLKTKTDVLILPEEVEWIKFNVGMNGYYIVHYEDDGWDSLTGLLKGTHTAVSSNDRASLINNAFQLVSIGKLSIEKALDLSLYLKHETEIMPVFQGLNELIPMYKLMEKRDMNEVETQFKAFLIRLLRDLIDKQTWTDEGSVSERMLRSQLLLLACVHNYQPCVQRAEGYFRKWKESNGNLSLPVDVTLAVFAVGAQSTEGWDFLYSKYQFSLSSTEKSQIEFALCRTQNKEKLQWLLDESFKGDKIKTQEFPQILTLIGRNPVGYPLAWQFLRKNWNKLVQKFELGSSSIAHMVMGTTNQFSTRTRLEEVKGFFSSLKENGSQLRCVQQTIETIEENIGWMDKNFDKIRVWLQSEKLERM

| Structure (SMILES) | IC50 [nM] |
| --- | --- |
| CCc1ccc(C(=O)O)cc1S(=O)(=O)Nc1cc(C(F)(F)F)ccc1C1CCCCN1C (stereo not shown) [Example 10, 4-ethyl-3-(N-(2-(1-methylpiperidin-2-yl)-5-(trifluoromethyl)phenyl)sulfamoyl)benzoic Acid] | < 100 |
| O=C(O)c1ccc(C2CC2)c(S(=O)(=O)Nc2cc(C(F)(F)F)c(F)cc2C2CCCCN2)c1 (stereo not shown) [Example 24, 4-cyclopropyl-3-(N-(4-fluoro-2-(piperidin-2-yl)-5-(trifluoromethyl)phenyl)sulfamoyl)benzoic Acid] | < 100 |
| COc1ccc(C(=O)O)cc1S(=O)(=O)Nc1cc(C(F)(F)F)ccc1C1CCCN(C)C1 (stereo not shown) [Example 1, 4-methoxy-3-(N-(2-(1-methylpiperidin-3-yl)-5-(trifluoromethyl)phenyl)sulfamoyl)benzoic Acid] | > 500 |
| COc1ccc(C(=O)O)cc1S(=O)(=O)Nc1cc(C(F)(F)F)ccc1C1CCCNC1 (stereo not shown) [Example 2, 4-methoxy-3-(N-(2-(piperidin-3-yl)-5-(trifluoromethyl)phenyl)sulfamoyl)benzoic Acid Hydrochloride] | 100 to 500 |
| O=C(O)c1ccc(C2CC2)c(S(=O)(=O)Nc2cc(-n3cnnn3)ccc2C2CCCCN2)c1 (stereo not shown) [Example 23, 4-cyclopropyl-3-(N-(2-(piperidin-2-yl)-5-(tetrazol-1-yl)phenyl)sulfamoyl)benzoic Acid] | < 100 |
| CCc1ccc(C(=O)O)cc1S(=O)(=O)Nc1cc(S(C)(=O)=O)ccc1C1CCCNC1 (stereo not shown) [Example 14, 4-ethyl-3-(N-(5-(methylsulfonyl)-2-(piperidin-3-yl)phenyl)sulfamoyl)benzoic Acid] | < 100 |
| O=C(O)c1ccc(C2CC2)c(S(=O)(=O)Nc2cc(C(F)(F)F)ccc2C2CCCCN2)c1 (single isomer, unassigned; enantiomer 1) [Example 29, 4-cyclopropyl-3-(N-(2-(piperidin-2-yl)-5-(trifluoromethyl)phenyl)sulfamoyl)benzoic Acid Enantiomer 1] | < 100 |
| O=C(O)c1ccc(C2CC2)c(S(=O)(=O)Nc2cc(-c3ccns3)ccc2C2CCCCN2)c1 (stereo not shown) [Example 28, 4-cyclopropyl-3-(N-(5-(isothiazol-5-yl)-2-(piperidin-2-yl)phenyl)sulfamoyl)benzoic Acid] | < 100 |
| CS(=O)(=O)c1cc(NS(=O)(=O)c2cc(C(=O)O)ccc2C2CC2)c(C2CCCCN2)cc1Cl (stereo not shown) [Example 27, 3-(N-(4-chloro-5-(methylsulfonyl)-2-(piperidin-2-yl)phenyl)sulfamoyl)-4-cyclopropylbenzoic Acid Hydrochloride] | < 100 |
| CCc1ccc(C(=O)O)cc1S(=O)(=O)Nc1cc(C(F)(F)F)ccc1C1CCCN1C (stereo not shown) [Example 6, 4-ethyl-3-(N-(2-(1-methylpyrrolidin-2-yl)-5-(trifluoromethyl)phenyl)sulfamoyl)benzoic] | 100 to 500 |
| O=C(O)c1ccc(C2CC2)c(S(=O)(=O)Nc2cc(C(F)(F)F)ccc2C2CCCCN2)c1 (stereo not shown) [Example 16, 4-cyclopropyl-3-(N-(2-(piperidin-2-yl)-5-(trifluoromethyl)phenyl)sulfamoyl)benzoic Acid] | < 100 |
| O=C(O)c1ccc(C2CC2)c(S(=O)(=O)Nc2cc(C(F)(F)F)ccc2C2CCCNC2)c1 (stereo not shown) [Example 12, 4-cyclopropyl-3-(N-(2-(piperidin-3-yl)-5-(trifluoromethyl)phenyl)sulfamoyl)benzoic Acid] | < 100 |
| N#Cc1ccc(C2CCCCN2)c(NS(=O)(=O)c2cc(C(=O)O)ccc2C2CC2)c1 (stereo not shown) [Example 19, 3-(N-(5-cyano-2-(piperidin-2-yl)phenyl)sulfamoyl)-4-cyclopropylbenzoic Acid] | < 100 |
| CCc1ccc(C(=O)O)cc1S(=O)(=O)Nc1cc(C(F)(F)F)ccc1C1CCCN1 (stereo not shown) [Example 5, 4-ethyl-3-(N-(2-(pyrrolidin-2-yl)-5-(trifluoromethyl)phenyl)sulfamoyl)benzoic Acid] | 100 to 500 |
| CCc1ccc(C(=O)O)cc1S(=O)(=O)Nc1cc(C(F)(F)F)ccc1C1CCNC1 (stereo not shown) [Example 7, 4-ethyl-3-(N-(2-(pyrrolidin-3-yl)-5-(trifluoromethyl)phenyl)sulfamoyl)benzoic Acid] | < 100 |
| CCc1ccc(C(=O)O)cc1S(=O)(=O)Nc1cc(C#N)ccc1C1CCCCC1 [Example 13, 3-(N-(5-cyano-2-cyclohexylphenyl)sulfamoyl)-4-ethylbenzoic Acid] | < 100 |

| Structure (SMILES) | IC50 [nM] |
| --- | --- |
| CCc1ccc(C(=O)O)cc1S(=O)(=O)Nc1cc(C(F)(F)F)ccc1C1CCCCN1 (stereo not shown) [Example 8, 4-ethyl-3-(N-(2-(piperidin-2-yl)-5-(trifluoromethyl)phenyl)sulfamoyl)benzoic Acid] | < 100 |
| O=C(O)c1ccc(C2CC2)c(S(=O)(=O)Nc2cc(C(F)(F)F)c(Cl)cc2C2CCCCN2)c1 (stereo not shown) [Example 26, 3-(N-(4-chloro-2-(piperidin-2-yl)-5-(trifluoromethyl)phenyl)sulfamoyl)-4-cyclopropylbenzoic Acid] | < 100 |
| N#Cc1cc(NS(=O)(=O)c2cc(C(=O)O)ccc2C2CC2)c(C2CCCCN2)cc1Cl (stereo not shown) [Example 22, 3-(N-(4-chloro-5-cyano-2-(piperidin-2-yl)phenyl)sulfamoyl)-4-cyclopropylbenzoic Acid] | < 100 |
| CS(=O)(=O)c1cc(NS(=O)(=O)c2cc(C(=O)O)ccc2C2CC2)c(C2CCCCN2)cc1F (stereo not shown) [Example 25, 4-cyclopropyl-3-(N-(4-fluoro-5-(methylsulfonyl)-2-(piperidin-2-yl)phenyl)sulfamoyl)benzoic Acid Hydrochloride] | < 100 |
| O=C(O)c1cc(F)c(C2CC2)c(S(=O)(=O)Nc2cc(C(F)(F)F)ccc2C2CCCCN2)c1 (stereo not shown) [Example 31, 4-cyclopropyl-3-fluoro-5-(N-(2-(piperidin-2-yl)-5-(trifluoromethyl)phenyl)sulfamoyl)benzoic Acid] | < 100 |
| N#Cc1cc(NS(=O)(=O)c2cc(C(=O)O)ccc2C2CC2)c(C2CCCCN2)cc1F (stereo not shown) [Example 21, 3-(N-(5-cyano-4-fluoro-2-(piperidin-2-yl)phenyl)sulfamoyl)-4-cyclopropylbenzoic Acid] | < 100 |
| CS(=O)(=O)c1ccc(C2CCCCN2)c(NS(=O)(=O)c2cc(C(=O)O)ccc2C2CC2)c1 (stereo not shown) [Example 20, 4-cyclopropyl-3-(N-(5-(methylsulfonyl)-2-(piperidin-2-yl)phenyl)sulfamoyl)benzoic Acid] | < 100 |
| O=C(O)c1ccc(C2CC2)c(S(=O)(=O)Nc2cc(C(F)(F)F)ccc2C2CCCCN2)c1 (single isomer, unassigned; enantiomer 2) [Example 30, 4-cyclopropyl-3-(N-(2-(piperidin-2-yl)-5-(trifluoromethyl)phenyl)sulfamoyl)benzoic Acid Enantiomer 2] | < 100 |
| CCc1ccc(C(=O)O)cc1S(=O)(=O)Nc1cc(S(C)(=O)=O)ccc1C1CCCCC1 [Example 11, 3-(N-(2-cyclohexyl-5-(methylsulfonyl)phenyl)sulfamoyl)-4-ethylbenzoic Acid] | < 100 |
| CS(=O)(=O)c1ccc(C2CCCCC2)c(NS(=O)(=O)c2cc(C(=O)O)ccc2C2CC2)c1 [Example 17, 3-(N-(2-cyclohexyl-5-(methylsulfonyl)phenyl)sulfamoyl)-4-cyclopropylbenzoic Acid] | < 100 |
| CCc1ccc(C(=O)O)cc1S(=O)(=O)Nc1cc(-n2cnnn2)ccc1C1CCCCC1 [Example 4, 3-(N-(2-cyclohexyl-5-(tetrazol-1-yl)phenyl)sulfamoyl)-4-ethylbenzoic Acid] | < 100 |
| CCc1ccc(C(=O)O)cc1S(=O)(=O)Nc1cc(S(C)(=O)=O)ccc1C1CCCCN1 (stereo not shown) [Example 15, 4-ethyl-3-(N-(5-(methylsulfonyl)-2-(piperidin-2-yl)phenyl)sulfamoyl)benzoic Acid] | < 100 |
| N#Cc1ccc(C2CCCCC2)c(NS(=O)(=O)c2cc(C(=O)O)ccc2C2CC2)c1 [Example 18, 3-(N-(5-cyano-2-cyclohexylphenyl)sulfamoyl)-4-cyclopropylbenzoic Acid] | < 100 |
| CCc1ccc(C(=O)O)cc1S(=O)(=O)Nc1cc(C(F)(F)F)ccc1C1CCCCC1 [Example 9, 3-(N-(2-cyclohexyl-5-(trifluoromethyl)phenyl)sulfamoyl)-4-ethylbenzoic Acid] | < 100 |
| CCc1ccc(C(=O)O)cc1S(=O)(=O)Nc1cc(C(F)(F)F)ccc1C1CCCNC1 (stereo not shown) [Example 3, 4-ethyl-3-(N-(2-(piperidin-3-yl)-5-(trifluoromethyl)phenyl)sulfamoyl)benzoic Acid Hydrochloride] | < 100 |
